According to patent US20070049593A1 (priority 2004, published 2007):
pIC50: −log10 of the molar value. Structures can show the parent of a compound that is named as a salt.

Each molecule was assayed against T1, HCV polymerase (Hepatitis C virus genotype 1b, UniProt P26663) (assay: biochemical).
T1 construct: a region encoding NS5B (J Virol 1991 March, 65(3), 1105-13, 544 amino acids after deletion of 47 amino acids on the C-terminal); 6xHis (C); made in house; host or cells: Escherichia coli
T1 sequence (P26663 2420-2963): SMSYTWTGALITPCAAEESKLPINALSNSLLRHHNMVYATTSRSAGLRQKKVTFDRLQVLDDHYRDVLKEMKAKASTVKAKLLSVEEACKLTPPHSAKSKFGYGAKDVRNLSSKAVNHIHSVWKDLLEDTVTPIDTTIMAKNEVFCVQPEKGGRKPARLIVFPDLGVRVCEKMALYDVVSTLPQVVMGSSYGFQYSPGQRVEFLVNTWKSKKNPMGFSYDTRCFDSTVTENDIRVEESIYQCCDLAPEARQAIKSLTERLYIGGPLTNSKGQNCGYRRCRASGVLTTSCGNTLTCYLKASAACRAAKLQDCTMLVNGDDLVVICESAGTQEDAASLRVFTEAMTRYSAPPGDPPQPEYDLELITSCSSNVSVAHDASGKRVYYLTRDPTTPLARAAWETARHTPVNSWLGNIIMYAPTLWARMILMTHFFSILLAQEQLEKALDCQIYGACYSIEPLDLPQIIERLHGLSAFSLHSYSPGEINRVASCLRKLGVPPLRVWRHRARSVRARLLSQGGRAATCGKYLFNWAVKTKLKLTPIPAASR
Set-up: species or system HCV BK strain
Text: The evaluation of the HCV polymerase inhibitory activity of the compound of the present invention is explained in the following. This polymerase is an enzyme coded for by the non-structural protein region called NS5B on the genome RNA of HCV (EMBO J., 15:12-22, 1996).
Using, as a template, a cDNA clone corresponding to the full length genome RNA of HCV BK strain obtained from the blood of a patient with hepatitis C, a region encoding NS5B (J Virol 1991 March, 65(3), 1105-13, 544 amino acids after deletion of 47 amino acids on the C-terminal) was amplified by PCR. The objective gene was prepared by adding a 6 His tag {base pair encoding 6 continuous histidine (His)}to the 3′ end thereof and transformed to Escherichia coli. The Escherichia coli capable of producing the objective protein was cultured. The obtained cells were suspended in a buffer solution and crushed in a microfluidizer.
Using a synthetic primer designed based on the sequence of HCV genomic 3′ untranslated region, a DNA fragment (148 bp) containing polyU and 3′X sequence was entirely synthesized and cloned into plasmid pBluescript SK II(+) (Stratagene). The cDNA encoding full length NS5B, which was prepared in i) above, was digested with restriction enzyme KpnI to give a cDNA fragment containing the nucleotide sequence of from the restriction enzyme cleavage site to the termination codon. This cDNA fragment was inserted into the upstream of 3′ untranslated region of the DNA in pBluescript SK II(+) and ligated. The about 450 bp inserted DNA sequence was used as a template in the preparation of substrate RNA.
RNA was synthesized (37° C., 3 hr) by run-off method using this purified DNA as a template, a promoter of pBluescript SK II(+), MEGAscript RNA synthesis kit (Ambion) and T7 RNA polymerase. DNase I was added and the mixture was incubated for 1 hr. The template DNA was removed by decomposition to give a crude RNA product.
A test substance (compound of the present invention) and a reaction mixture (30 μl) having the following composition were reacted at 25° C. for 90 min.
10% Trichloroacetic acid at 4° C. and 1% sodium pyrophosphate solution (150 μl) were added to this reaction mixture to stop the reaction. The reaction mixture was left standing in ice for 15 min to insolubilize RNA. This RNA was trapped on a glass filter (Whatman GF/C and the like) upon filtration by suction. This filter was washed with a solution containing 1% trichloroacetic acid and 0.1% sodium pyrophosphate, washed with 90% ethanol and dried. A liquid scintillation cocktail (Packard) was added and the radioactivity of RNA synthesized by the enzyme reaction was measured on a liquid scintillation counter.
The HCV polymerase inhibitory activity (IC50) of the compound of the present invention was calculated from the values of radioactivity of the enzyme reaction with and without the test substance.
Reaction mixture: HCV polymerase (0.5 μg/ml) obtained in i), substrate RNA (5 μg/ml) obtained in ii), ATP (50 μM), GTP (50 μM), CTP ([…]), UTP (2 μM), [5,6-^3H]UTP (46 Ci/mmol (Amersham), 1 μCi) 20 mM Tris-HCl (pH 7.5), EDTA (1 mM), MgCl2 (5 mM), NaCl (50 mM), DTT (1 mM), BSA (0.01%)
With `O=C(O)c1ccc2c(C3CCCCC3)c3n(c2c1)CCNc1ccccc1-3` [Example 1-3, 13-cyclohexyl-6,7-dihydro-5H-benzo[5,6][1,4]diazepino[7,1-a]indole-10-carboxylic acid monohydrochloride] the pIC50 was over 7.00. In the case of `O=C(O)c1ccc2c(C3CCCCC3)c3n(c2c1)CCN(CC(=O)N1CCSCC1)c1ccccc1-3` [Example 1-7, 13-cyclohexyl-5-[2-oxo-2-(thiomorpholin-4-yl)ethyl]-6,7-dihydro-5H-benzo[5,6][1,4]diazepino[7,1-a]indole-10-carboxylic acid monohydrochloride], the pIC50 was over 7.00. Molecule `O=C(O)c1ccc2c(C3CCCCC3)c3n(c2c1)CCN(CCN1CCSCC1)c1ccccc1-3` [Example 1-9, 13-cyclohexyl-5-[2-(thiomorpholin-4-yl)ethyl]-6,7-dihydro-5H-benzo[5,6][1,4]diazepino[7,1-a]indole-10-carboxylic acid dihydrochloride] has a pIC50 of over 7.00. For `O=C(O)c1ccc2c(C3CCCCC3)c3n(c2c1)CCN(CCN1CCCCC1)c1cc(Cl)ccc1-3` [Example 1-14, 3-chloro-13-cyclohexyl-5-[2-(piperidin-1-yl)ethyl]-6,7-dihydro-5H-benzo[5,6][1,4]diazepino[7,1-a]indole-10-carboxylic acid dihydrochloride], the pIC50 was over 7.00. With `O=C(O)c1ccc2c(C3CCCCC3)c3n(c2c1)CCN(CCN1CCCCC1)c1ccc(F)cc1-3` [Example 1-18, 13-cyclohexyl-2-fluoro-5-[2-(piperidin-1-yl)ethyl]-6,7-dihydro-5H-benzo[5,6][1,4]diazepino[7,1-a]indole-10-carboxylic acid dihydrochloride] the pIC50 was over 7.00. For `CC(=O)N1CCn2c(c(C3CCCCC3)c3ccc(C(=O)O)cc32)-c2ccccc21` [Example 1-19, 5-acetyl-13-cyclohexyl-6,7-dihydro-5H-benzo[5,6][1,4]diazepino[7,1-a]indole-10-carboxylic acid], the pIC50 was 6.00 to 7.00. `CN1CCn2c(c(C3CCCCC3)c3ccc(C(=O)O)cc32)-c2ccccc21` [Example 1-20, 13-cyclohexyl-5-methyl-6,7-dihydro-5H-benzo[5,6][1,4]diazepino[7,1-a]indole-10-carboxylic acid] was tested, and the pIC50 was over 7.00. `CN(C)C(=O)CN1CCn2c(c(C3CCCCC3)c3ccc(C(=O)O)cc32)-c2ccccc21` [Example 1-21, 13-cyclohexyl-5-dimethylcarbamoylmethyl-6,7-dihydro-5H-benzo[5,6][1,4]diazepino[7,1-a]indole-10-carboxylic acid] showed a pIC50 of over 7.00. In the case of `O=C(O)c1ccc2c(C3CCCCC3)c3n(c2c1)CCN(Cc1ccccc1)c1ccccc1-3` [Example 1-22, 5-benzyl-13-cyclohexyl-6,7-dihydro-5H-benzo[5,6][1,4]diazepino[7,1-a]indole-10-carboxylic acid], the pIC50 was over 7.00. In the case of `CC(C)N1CCn2c(c(C3CCCCC3)c3ccc(C(=O)O)cc32)-c2ccccc21` [Example 1-23, 13-cyclohexyl-5-isopropyl-6,7-dihydro-5H-benzo[5,6][1,4]diazepino[7,1-a]indole-10-carboxylic acid monohydrochloride], the pIC50 was over 7.00. `O=C1Cn2c(c(C3CCCCC3)c3ccc(C(=O)O)cc32)-c2ccccc2N1` [Example 1-24, 13-cyclohexyl-6-oxo-6,7-dihydro-5H-benzo[5,6][1,4]diazepino[7,1-a]indole-10-carboxylic acid] was tested, and the pIC50 was over 7.00. With `O=C(CN1CCn2c(c(C3CCCCC3)c3ccc(C(=O)O)cc32)-c2ccccc21)NCc1ccccc1` [Example 1-25, 5-(benzylcarbamoylmethyl)-13-cyclohexyl-6,7-dihydro-5H-benzo[5,6][1,4]diazepino[7,1-a]indole-10-carboxylic acid] the pIC50 was over 7.00. For `O=C(O)c1ccc2c(C3CCCCC3)c3n(c2c1)CCN(CC(=O)N1CCOCC1)c1ccccc1-3` [Example 1-26, 13-cyclohexyl-5-[2-(morpholin-4-yl)-2-oxoethyl]-6,7-dihydro-5H-benzo[5,6][1,4]diazepino[7,1-a]indole-10-carboxylic acid], the pIC50 was over 7.00. With `O=C(O)c1ccc2c(C3CCCCC3)c3n(c2c1)CCN(CCN1CCOCC1)c1ccccc1-3` [Example 1-27, 13-cyclohexyl-5-[2-(morpholin-4-yl)ethyl]-6,7-dihydro-5H-benzo[5,6][1,4]diazepino[7,1-a]indole-10-carboxylic acid dihydrochloride] the pIC50 was over 7.00. `COc1ccc2c(c1)N(CC(=O)N(C)C)CCn1c-2c(C2CCCCC2)c2ccc(C(=O)O)cc21` [Example 1-28, 13-cyclohexyl-5-dimethylcarbamoylmethyl-3-methoxy-6,7-dihydro-5H-benzo[5,6][1,4]diazepino[7,1-a]indole-10-carboxylic acid] gave a pIC50 of over 7.00. `O=C(O)c1ccc2c(C3CCCCC3)c3n(c2c1)CCN(CC(=O)N1CCCCC1)c1ccccc1-3` [Example 1-29, 13-cyclohexyl-5-[2-oxo-2-(piperidin-1-yl)ethyl]-6,7-dihydro-5H-benzo[5,6][1,4]diazepino[7,1-a]indole-10-carboxylic acid] was tested, and the pIC50 was over 7.00. `CCN1CCN(C(=O)CN2CCn3c(c(C4CCCCC4)c4ccc(C(=O)O)cc43)-c3ccccc32)CC1` [Example 1-30, 13-cyclohexyl-5-[2-(4-ethylpiperazin-1-yl)-2-oxoethyl]-6,7-dihydro-5H-benzo[5,6][1,4]diazepino[7,1-a]indole-10-carboxylic acid dihydrochloride] was tested, and the pIC50 was over 7.00. For `CN(C)C(=O)N1CCn2c(c(C3CCCCC3)c3ccc(C(=O)O)cc32)-c2ccccc21` [Example 1-31, 13-cyclohexyl-5-dimethylcarbamoyl-6,7-dihydro-5H-benzo[5,6][1,4]diazepino[7,1-a]indole-10-carboxylic acid], the pIC50 was 6.00 to 7.00. Molecule `O=C(O)c1ccc2c(C3CCCCC3)c3n(c2c1)CCN(CCN1CCCCC1)c1ccccc1-3` [Example 1-32, 13-cyclohexyl-5-[2-(piperidin-1-yl)ethyl]-6,7-dihydro-5H-benzo[5,6][1,4]diazepino[7,1-a]indole-10-carboxylic acid dihydrochloride] has a pIC50 of over 7.00. Molecule `O=C(CN1CCn2c(c(C3CCCCC3)c3ccc(C(=O)O)cc32)-c2ccccc21)NCc1ccccn1` [Example 1-33, 13-cyclohexyl-5-{[(pyridin-2-ylmethyl)carbamoyl]methyl}-6,7-dihydro-5H-benzo[5,6][1,4]diazepino[7,1-a]indole-10-carboxylic acid dihydrochloride] has a pIC50 of over 7.00. `O=C(O)c1ccc2c(C3CCCCC3)c3n(c2c1)CCN(CCNCc1ccccn1)c1ccccc1-3` [Example 1-34, 13-cyclohexyl-5-{2-[(pyridin-2-ylmethyl)amino]ethyl}-6,7-dihydro-5H-benzo[5,6][1,4]diazepino[7,1-a]indole-10-carboxylic acid trihydrochloride] gave a pIC50 of over 7.00. Work on `O=C(O)c1ccc2c(C3CCCCC3)c3n(c2c1)CCN(CC(=O)N1CCC(O)CC1)c1ccccc1-3` [Example 1-35, 13-cyclohexyl-5-[2-(4-hydroxypiperidin-1-yl)-2-oxoethyl]-6,7-dihydro-5H-benzo[5,6][1,4]diazepino[7,1-a]indole-10-carboxylic acid monohydrochloride] yielded a pIC50 of over 7.00. Work on `COC1CCN(C(=O)CN2CCn3c(c(C4CCCCC4)c4ccc(C(=O)O)cc43)-c3ccccc32)CC1` [Example 1-36, 13-cyclohexyl-5-[2-(4-methoxypiperidin-1-yl)-2-oxoethyl]-6,7-dihydro-5H-benzo[5,6][1,4]diazepino[7,1-a]indole-10-carboxylic acid monohydrochloride] yielded a pIC50 of over 7.00.
